{
  "source": "patent US8859503B2",
  "about": "“Methods and compositions targeting viral and cellular ITAM motifs, and use of same in identifying compounds with therapeutic activity” (priority 2005, dated 2014)",
  "key": {"[1]": {"tested_on": "Env-expressing NMuMG cells", "test": "Three-dimensional Matrigel cultures of MMTV Env-expressing NMuMG cells (acinar structure morphology/size)", "assay_type": "cell-based, murine", "experimental": "NMuMG cells (5×10^3 cells per chamber) were cultured on Matrigel® (BD Biosciences) cushions. Assay medium (DMEM/F12 supplemented with 2% donor horse serum, 10 μg/ml insulin, 1 ng/ml cholera toxin, 100 μg/ml hydrocortisone, 50 U/ml penicillin, and 50 μg/ml streptomycin) containing 2% Matrigel was replaced every 4 days. The structures were analyzed, at a magnification of 20, on a Zeiss Axiovert 200M equipped with PCO SensiCam video camera and Slidebook® software (Intelligent Imaging Innovations). Cell staining was performed with rat anti-human Keratin-18 (Lab Vision), rat anti-human E-cadherin and goat anti-rat IgG-FITC conjugated antibodies (Jackson ImmunoResearch Laboratories), or goat anti-rat IgG-Alexa-555 conjugated antibodies (Molecular Probes). Quantification of structure size was performed using a 10×50-μm grid reticule (Fisher Scientific) and 20-100 structures were counted from each chamber. The inhibitors PP2 and Piceatannol (EMD) were added on day 3 of culture, and pictures were taken on day 6. In apoptosis assays, TNF (R&D Systems) or TRAIL (BIOMOL Research Laboratories, Inc) were added on day 5 of culture, and pictures were taken on day 6. TUNEL assay was performed using a kit from Roche Applied Science (Indianapolis, Ind.).\n(§1) NmuMG (wild-type or Env-expressing) or Mm5MT cells (10^4) were incubated on Matrigel (BD Labware) for six days, as described previously. Cells were treated with or without ITAM peptide (10 μM) or the Syk inhibitors piceatannol (1 μg/ml) and SI-31 (100 nM) (EMD). The acinar structures were analyzed and captured, at a magnification of 20×, on a Zeiss Axiovert 200M equipped with PCO SensiCam video camera and Slidebook v4 software (Intelligent Imaging Innovations). Three-dimensional structures >50 μm were considered enlarged. Data shown is based on size of 50 random acini."}, "Mm5MT cells": {"tested_on": "Mm5MT cells", "test": "Three-dimensional Matrigel cultures of MMTV+ Mm5MT tumor cells", "assay_type": "cell-based", "details": "for reversion to round 3D phenotype: six days", "experimental": "as §1, with “Cells were treated with or without ITAM peptide (10 μM) or the Syk inhibitors piceatannol (1 μg/ml) and SI-31 (100 nM) (EMD).” left out"}, "[2]": {"test": "Water solubility of the ITAM fragment", "assay_type": "physicochemical"}, "[3]": {"tested_on": "NIH3T3 cells expressing the ITAM-containing MAHB chimera", "test": "Soft agar colony formation assay of NIH3T3 cells expressing the ITAM-containing MAHB chimera", "assay_type": "cell-based, murine", "experimental": "NIH3T3 cells expressing the ITAM-containing MAHB chimera (1×10^4) were suspended in 0.3% agar in DMEM containing 10% FBS. Cells from each transduction group were plated in 6-well plates pre-coated with 0.6% agar base in DMEM containing 10% FBS. Cells were fed with fresh top agar (0.3% agar in DMEM with 10% FBS, with or without ITAM peptide) every 5 days. Colonies were counted and measured using a graduated reticule under microscope at 10× magnification on day 21."}, "mouse splenic B cells": {"tested_on": "mouse splenic B cells", "test": "B lymphocyte stimulation and proliferation ([3H] thymidine incorporation)", "assay_type": "cell-based", "details": "20 μM peptide", "experimental": "Proliferation of mouse splenic B cells: cells (5×10^5) were incubated for 48 h in the presence or absence of 20 μM peptide and stimulated with 10 μg/ml anti-BCR antibodies (Jackson ImmunoResearch Laboratories), LPS (Sigma) or anti-CD40 antibodies (BD Pharmingen). [^3H] Thymidine incorporation (1 μCi/well) was measured in the last 4 h of the experiment."}, "[4]": {"tested_on": "ITAM-based BCR signaling (tyrosine phosphorylation) in splenic B cells", "test": "Western blotting for tyrosine phosphorylation after anti-BCR stimulation", "assay_type": "cell-based, mouse", "experimental": "Splenic B cells (10^7) were pre-incubated with 0-100 μM ITAM peptide for 3 h at 37° C. and then stimulated with anti-BCR antibodies as above for further 5 min. Lysates (20 μg/lane) were run on SDS-PAGE, blotted and detected with anti-phosphotyrosine antibody (4G10-HRP; Upstate Biotech). Molecular weights shown are based on the molecular weight markers."}, "RBL-2H3 cells": {"tested_on": "RBL-2H3 cells", "test": "FcεR1-mediated degranulation of RBL-2H3 cells (hexosaminidase activity)", "assay_type": "cell-based", "details": "ITAM peptide 25 μM; anti-DNP IgE 1 μg/ml, DNP-HSA 10 ng/ml", "experimental": "The effect of ITAM peptide on mast cell function was evaluated by degranulation induced by FcεR1 cross-linking. RBL-2H3 cells (5×10^4) were incubated overnight with anti-DNP IgE (1 μg/ml). Subsequently, degranulation was induced with DNP-HSA (10 ng/ml, 2 h), in the presence or absence of ITAM peptide (25 μM). Degranulation, as detected by hexosaminidase activity, is depicted as percent of maximal activity obtained from whole cell lysates."}, "Syk": {"target": "T1, Syk (Mus musculus, UniProt P48025)", "T1 construct": "Whole cell lyastes of Bal-17 B cells (3×10^7) were used; endogenous in cells; host or cells: Bal-17 B cells (whole cell lysate)", "T1 sequence (P48025 whole entry)": "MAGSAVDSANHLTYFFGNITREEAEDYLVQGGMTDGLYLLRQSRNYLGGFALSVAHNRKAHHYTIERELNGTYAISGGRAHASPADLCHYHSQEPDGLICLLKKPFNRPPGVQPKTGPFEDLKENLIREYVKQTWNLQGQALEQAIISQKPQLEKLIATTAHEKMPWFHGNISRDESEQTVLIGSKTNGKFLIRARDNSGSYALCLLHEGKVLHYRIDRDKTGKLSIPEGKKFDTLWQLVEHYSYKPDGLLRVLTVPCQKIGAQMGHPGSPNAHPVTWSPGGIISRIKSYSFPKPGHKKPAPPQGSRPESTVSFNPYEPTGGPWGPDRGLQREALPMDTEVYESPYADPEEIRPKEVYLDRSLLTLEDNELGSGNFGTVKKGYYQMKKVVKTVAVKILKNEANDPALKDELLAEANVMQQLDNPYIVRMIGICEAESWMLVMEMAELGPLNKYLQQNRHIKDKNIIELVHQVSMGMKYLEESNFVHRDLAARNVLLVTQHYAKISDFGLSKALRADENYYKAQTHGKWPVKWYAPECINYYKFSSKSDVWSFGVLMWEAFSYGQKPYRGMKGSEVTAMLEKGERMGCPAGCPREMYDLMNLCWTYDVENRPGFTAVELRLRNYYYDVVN", "test": "Peptide:Syk binding assay (biotin-peptide pull-down from Bal-17 B cell lysates)", "details": "peptide 50 μM; Bal-17 whole cell lysates; n=3", "experimental": "Whole cell lyastes of Bal-17 B cells (3×10^7) were used for quantification of ITAM peptide interactions. Equivalent cell lysates were mixed with either biotin-KRPPAVLL (control peptide; SEQ ID No 46) or biotin-KRPPYVLL (ITAM peptide; SEQ ID No 47) in concentration between 10-50 μM. Pull-downs were performed with Immobilized Neutravidin Protein (Pierce), as previously described. The resulting lysate pull-downs were run on SDS-PAGE were detected by Western blotting with rabbit anti-Syk antibody (N-19, Santa Cruz). Donkey anti-rabbit IgG-alkaline phosphatase conjugated antibody was used as a secondary antibody (Jackson ImmunoResearch Laboratories). For development and quantification, an ECF substrate was used followed by a scan using Storm 860 and analysis by ImageQuant 5.2 (all obtained from Amersham Biosciences)."}, "Syk-GFP": {"target": "T2, Syk-GFP (Mus musculus, UniProt P48025)", "T2 construct": "host or cells: Human 293T cells, transient transfection", "T2 sequence (P48025 whole entry)": "as above", "test": "Co-localization of dsRed peptide chimeras with Syk-GFP in 293T cells by confocal microscopy", "assay_type": "cell-based", "details": "transiently transfected human 293T cells", "source_text": "Peptide conjugates were produced by QuikChange XL® kit from Stratagene. The dsRed2-C1 construct (BD Clontech) was modified using the following primers: dsRed.YVLL: 5′-[…]-3′ (SEQ ID No 42); and 5′-[…]-3 (SEQ ID No 43).\ndsRed.KRPPYVLL: 5′-[…]-3′ (SEQ ID No 44); and 5′-[…]-3′ (SEQ ID No 45). The Syk-eGFP construct was a provided by Dr. Robert Geahlen (Purdue University).\nFor laser scanning microscopy a Zeiss LSM510 META laser scanning confocal module on a Zeiss Axiovert 200M inverted microscope was used. Objective used: C-APO 40×/1.2 water DIC. Lasers: 488 nm laser line from Argon laser (30 mW) for eGFP excitation; 543 nm laser line from HeNe laser (1 mW) for dsRed excitation. Analysis was performed on Zeiss LSM510 META v3.2 software."}},
  "note": "Entries after “also recorded” stand apart in the source; their conditions may differ. Ends that are not written are not given here. * marks the point of attachment. Biotin = O=C1N[C@H]2[C@H](CS[C@H]2CCCCC(=O)*)N1",
  "data": [
    {"molecule": "CC(C)(C)n1nc(-c2ccc(Cl)cc2)c2c(N)ncnc21", "note": "[PP2]", "values": [
      {"measurement": "morphological changes associated with Env transformation", "setting": "[1]; Env+ NMuMG 3D cultures, inhibitor 500 ng/ml added on day 3, imaged on day 6", "result": "sufficient to block morphological changes associated with Env transformation"},
      {"measurement": "phenotypic reversal of transformed phenotype to normal round acini", "setting": "[1]; Src inhibitor PP2, concentration not printed for this experiment", "result": "effective in phenotypic reversal"}
    ]},
    {"molecule": "Cn1cc(C=C2C(=O)Nc3ccc(S(N)(=O)=O)cc32)c2ccccc21", "note": "[SI-31, reference compound]", "values": [
      {"measurement": "phenotypic reversal of transformed phenotype to normal round acini", "setting": "[1]; SI-31 100 nM, six days", "result": "effective in phenotypic reversal"},
      {"measurement": "reversion to round 3D phenotype", "setting": "Mm5MT cells; SI-31 100 nM", "result": "readily apparent"}
    ]},
    {"molecule": "Ac-KRPPYVLL [KRPPYVLL]", "values": [
      {"measurement": "water solubility", "setting": "[2]", "result": "water-soluble"}
    ]},
    {"molecule": "Ac-KRPPYVLL-OH [ITAM peptide]", "values": [
      {"measurement": "phenotypic reversal of transformed phenotype to normal round acini", "setting": "[1]; ITAM peptide 10 μM, Env-expressing NMuMG on Matrigel six days", "result": "as effective in phenotypic reversal as the Src inhibitor PP2 and Syk inhibitors Piceatannol and SI-31"},
      {"measurement": "Mm5MT acini phenotype", "setting": "Mm5MT cells; 3D cultures on Matrigel six days, treated with ITAM peptide, Src or Syk inhibitors", "result": "exhibited a more round phenotype"},
      {"measurement": "reversion to round 3D phenotype", "setting": "Mm5MT cells; ITAM peptide 20 μM (5-20 μM tested)", "result": "readily apparent"},
      {"measurement": "size and number of colonies formed", "setting": "[3]; ITAM peptide 0-20 μM added with feeding media, colonies >75 μm scored on day 21", "result": "reduction in both size and number of colonies formed"},
      {"measurement": "colony formation of ITAM+ fibroblasts", "setting": "[3]; chronic treatment with ITAM peptide in feeding media", "result": "sufficient to reduce colony formation"},
      {"measurement": "BCR-induced proliferation ([3H] thymidine incorporation)", "setting": "mouse splenic B cells; 48 h, 10 μg/ml anti-BCR antibodies", "result": "inhibition of BCR-induced proliferation; also recorded: highly significant (p=0.0017)"},
      {"measurement": "stimulation of B lymphocytes by LPS (non-ITAM)", "setting": "mouse splenic B cells; LPS 20 μg/ml, data not shown", "result": "no significant effect"},
      {"measurement": "stimulation of B lymphocytes through CD40 (non-ITAM)", "setting": "mouse splenic B cells; anti-CD40 5 μg/ml, data not shown", "result": "no significant effect"},
      {"measurement": "tyrosine phosphorylation associated with ITAM-based BCR signaling", "setting": "[4]; higher concentrations of the peptide", "result": "neither stimulatory nor inhibitory"},
      {"measurement": "tyrosine phosphorylation associated with ITAM-based BCR signaling", "setting": "[4]; relevant peptide concentrations (0-100 μM tested), 3 h pre-incubation, anti-BCR 5 min, data not shown", "result": "visibly reduced; also recorded: Inhibition of tyrosine phosphorylation was confirmed"},
      {"measurement": "FcεRI-induced degranulation (hexosaminidase activity)", "setting": "RBL-2H3 cells", "result": "significantly inhibited; also recorded: significant reduction (p=0.093)"}
    ]},
    {"molecule": "Biotin-KRPPYVLL", "values": [
      {"measurement": "Syk detected in pull-down, over control peptide biotin-KRPPAVLL", "setting": "Syk", "result": "1.5- to 2 fold"}
    ]},
    {"molecule": "dsRed.KRPPYVLL: dsRed chimera protein with the entire 8 amino acid ITAM fragment (dsRed-KRPPYVLL)", "values": [
      {"measurement": "co-localization with Syk-GFP", "setting": "Syk-GFP", "result": "co-localization was still detected"}
    ]},
    {"molecule": "dsRed.YVLL: dsRed chimera protein with 4 amino acids (YVLL) of the ITAM fragment (dsRed-YVLL)", "values": [
      {"measurement": "co-localization with Syk-GFP", "setting": "Syk-GFP", "result": "co-localization was readily observed"}
    ]}
  ]
}
